Results taken from US9944607B2, “Thiohydantoin derivatives and uses thereof” (Whitehead Institute for Biomedical Research, priority 2012, dated 2018).
Read-outs that look alike come from different tables or passages of the source. Values belong to the compound of their own block, whether it stands above or below them.

Experiments:
[1] = system: Saccharomyces cerevisiae W303; test: Secondary S. cerevisiae inhibition in glucose media (OD600); assay type: cell-based; settings: Saccharomyces cerevisiae
Description: (§1) Cell Lines. • Candida albicans CaCi-2; a drug-resistant clinical isolate was provided by the Whitehead Institute (Redding et al., Clin. Infect. Dis. 1994, 18(2):240-2). This strain was used for the primary assay. • Candida albicans CaCi-17; a strongly drug-resistant clinical isolate was provided by the Whitehead Institute (Redding et al., Clin. Infect. Dis. 1994, 18(2):240-2). This strain was used for the primary assay • Saccharyomyces cerevisiae W303-1a (ATCC 208352); a well-characterized Saccharomyces strain used for determination of glycolytic vs. respiratory metabolism, as well as in the mitochondrial disruption assay. • Candida glabrata (ATCC 2001); used for determination of glycolytic vs. respiratory metabolism. • NIH-3T3 mammalian fibroblasts (ATCC; CRL no.1658); used for mammalian toxicity assays. […]
(§2) Saccharomyces, while not a major human pathogen, is a useful lab model with well-developed genetic tools available. Candida glabrata is an increasingly prominent clinical problem for immune-compromised patients but with fewer genetic tools available with which to study it. These organisms can utilize alternative metabolic pathways to support growth and survival depending on the carbon source. By comparing the concentration-dependent inhibition of yeast growth in glycerol relative to glucose media, a quantitative assessment of a compound's ability to disrupt respiration can be determined. […].
(§3) Procedures • Use a Thermo Combi nL to dispense 20 μL/well of assay media into all wells. • Add 2 μL of Amphotericin B to control wells. • Pin 100 nL of test compound from compound plates into assay plates using a CyBi-Well pin tool. • Dispense 20 μL/well of culture into the assay media in all wells. • Incubate the plates in a humidified (90% humidity) Liconic incubator at 37° C. without agitation for 48 hours. • Shake plates briefly. • Read OD600 of wells on a standard plate reader as measure of relative fungal growth. Envision (Perkin Elmer) plate reader settings: Ex Photometric 600, Top read. Secondary Glucose Assay Protocol (AID 623971, 623967, 624013, 624025) Materials and Reagents
(§4) Clear, flat bottom, black 384-well plates (Corning, Catalog No. 3712BC; Lot No. 35808016); Amphotericin B (Sigma, Catalog no. A2411) 15 mM stock solution in DMSO; Pen/Strep (Gibco, Catalog No. 10378-016; Lot no21040170) 100× in PBS.
(§5) Synthetic defined growth medium. Complete Supplement Mixture; (Sunrise Science, Catalog No. 1001-100); Yeast Nitrogen Base without ammonium sulfate (MP Biomedicals, Catalog No. 4027-012); Glucose (Sigma, Catalog No. G7021). • Prepare medium by dissolving 0.79 g of Complete Supplement Mixture and 1.7 g of Yeast Nitrogen Base in 800 mL of water. • Add 20 g of glucose. Adjust final volume to 1000 mL. Filter sterilize.
(§6) Fungal Inoculum. Test Strains: C. glabrata (ATCC 2001) and Saccharomyces cerevisiae W303. • Inoculate 100 L of yeast from cryopreserved stock into a 250 mL shaker flask containing 20 mL of growth medium. Shake at 30° C. overnight (about 16 hours). • Read OD 600 of 1 mL of fungal culture in a cuvette using a standard optical density reader (Eppendorf BioPhotometer Plus), with growth medium as a background blank. • Dilute to desired volume of fungal inoculum to produce an OD600 reading of 0.005 (S. cerevisiae) or 0.004 (C. glabrata).
as §3, with “read. 4.5.” for “read.”, “Mitochondrial Disruption” for “Glucose”, “Assay” for “Assay Protocol”, “No. 624062” for “623971, 623967, 624013, 624025) Materials”, “624068)” for “Reagents”

[2] = system: C. glabrata (ATCC 2001); test: Secondary C. glabrata inhibition in glycerol media (OD600); assay type: cell-based, Candida glabrata; settings: for IC50: Nakaseomyces glabratus
Description: as §1, §2
Clear, flat bottom, black 384-well plates (Corning Catalog no. 3712BC; Lot no. 35808016); Amphotericin B (Sigma Catalog no. A2411) 15 mM stock solution in DMSO; Pen/Strep (Gibco Catalog no. 10378-016; Lot no21040170) 100× in PBS.
as §5, with “4027-012); Glycerol (Sigma” for “4027-012); Glucose (Sigma,”, “No. G-9012).” for “No. G7021).”, “g” for “g of”, “mL” for “mL of”, “20 mL” for “20 g”, “of glycerol.” for “of glucose.”
as §6, with “Inoculate 100 μL of yeast” for “Inoculate 100 L of yeast”, “stock into 250 mL” for “stock into a 250 mL”, “20 mL growth medium.” for “20 mL of growth medium.”
as §3

[3] = system: C. glabrata (ATCC 2001); test: Secondary C. glabrata inhibition in glucose media (OD600); assay type: cell-based, Candida glabrata; settings: Nakaseomyces glabratus
Description: as §1, §2, §3, §4, §5, §6
as §3, with “read. 4.5.” for “read.”, “Mitochondrial Disruption” for “Glucose”, “Assay” for “Assay Protocol”, “No. 624062” for “623971, 623967, 624013, 624025) Materials”, “624068)” for “Reagents”

SMILES: CCOC(=O)N1C(=O)C2(CCCCC2)N(c2ccc(F)cc2)C1=S [CID 56604860, Ethyl 1-(4-fluorophenyl)-4-oxo-2-thioxo-1,3-diazaspiro[4.5]decane-3-carboxylate]
IC50 ([1]; W303, read-out: Growth inhibition of S. cerevisiae on glucose IC50): > 3 µM | Reduction in potency when glucose is available instead of glycerol, C. glabrata [2]: greater than 250 fold | IC50 ([2]; ATCC2001, read-out: Growth inhibition of C. glabrata on glycerol IC50): 0.011 µM | Fold Selective (Glucose IC50/Glycerol IC50), C. glabrata ([2]; Table 13): >272x | IC50 ([3]; ATCC2001, read-out: Growth inhibition of C. glabrata on glucose IC50): > 3 µM

SMILES: CCOC(=O)N1C(=O)C2(CCCCC2)N(c2ccc(C)cc2)C1=S [compound 3889161]
IC50 ([1]; W303, 48 h, read-out: Growth Inhibition Activity, IC50 (μM), S. cerevisiae (n = 3) On glucose): > 3 µM | IC50 ([2]; ATCC2001, 48 h, read-out: Growth Inhibition Activity, IC50 (μM), C. glabrata (n = 3) On glycerol): 0.041 µM | IC50 ([3]; ATCC2001, 48 h, read-out: Growth Inhibition Activity, IC50 (μM), C. glabrata (n = 3) On glucose): > 3 µM

IC50 ([1]; W303, Table 8, n = 3, glucose media, 48 hours, tested up to 3 μM, read-out: Growth Inhibition Activity, IC50 (μM), S. cerevisiae (n = 3) On glucose): > 3 µM | IC50 ([2]; ATCC2001, Table 8, n = 3, glycerol media, 48 hours, tested up to 3 μM, read-out: Growth Inhibition Activity, IC50 (μM), C. glabrata (n = 3) On glycerol): 0.034 µM | IC50 ([3]; ATCC2001, Table 8, n = 3, glucose media, 48 hours, tested up to 3 μM, read-out: Growth Inhibition Activity, IC50 (μM), C. glabrata (n = 3) On glucose): > 3 µM
SMILES: CCOC(=O)N1C(=O)C2(CCCCC2)N(c2cccc(C)c2)C1=S [compound 56604823]

SMILES: C/C=C/C1[C@H]2C[C@@H](C)CC[C@@H]2C(C)=C[C@H]1C(=O)c1c(O)c(-c2ccc(O)cc2)c[nH]c1=O (some centres unmarked) [ilicicolin H, reference compound]
IC50 ([1]; W303, figure legends and Tables 9, 10, 13, AID 623971, read-out: Growth inhibition of S. cerevisiae on glucose IC50): > 3 µM | IC50 ([2]; ATCC2001, figure legends and Tables 9, 10, 13, AID 623965, read-out: Growth inhibition of C. glabrata on glycerol IC50): 2.6 µM | IC50 ([3]; ATCC2001, figure legends and Tables 9, 10, 13, AID 623967, read-out: Growth inhibition of C. glabrata on glucose IC50): > 3 µM
